{
  "source": "patent US20220184108A1",
  "about": "“PHARMACEUTICAL AND NUTRITIONAL COMPOSITION TO MAXIMIZE NAD ENZYME'S HEALTH BENEFITS” (East West Products Corp., priority 2020, published 2022)",
  "origin": "cited, not measured here",
  "key": {"[1]": {"details": "doses of up to 500 mg; human study, Keio University School of Medicine"}, "Slc12a8 NMN transporter": {"target": "T1, Slc12a8 NMN transporter (Mus musculus, UniProt Q8VI23)", "T1 sequence (Q8VI23 1-705)": "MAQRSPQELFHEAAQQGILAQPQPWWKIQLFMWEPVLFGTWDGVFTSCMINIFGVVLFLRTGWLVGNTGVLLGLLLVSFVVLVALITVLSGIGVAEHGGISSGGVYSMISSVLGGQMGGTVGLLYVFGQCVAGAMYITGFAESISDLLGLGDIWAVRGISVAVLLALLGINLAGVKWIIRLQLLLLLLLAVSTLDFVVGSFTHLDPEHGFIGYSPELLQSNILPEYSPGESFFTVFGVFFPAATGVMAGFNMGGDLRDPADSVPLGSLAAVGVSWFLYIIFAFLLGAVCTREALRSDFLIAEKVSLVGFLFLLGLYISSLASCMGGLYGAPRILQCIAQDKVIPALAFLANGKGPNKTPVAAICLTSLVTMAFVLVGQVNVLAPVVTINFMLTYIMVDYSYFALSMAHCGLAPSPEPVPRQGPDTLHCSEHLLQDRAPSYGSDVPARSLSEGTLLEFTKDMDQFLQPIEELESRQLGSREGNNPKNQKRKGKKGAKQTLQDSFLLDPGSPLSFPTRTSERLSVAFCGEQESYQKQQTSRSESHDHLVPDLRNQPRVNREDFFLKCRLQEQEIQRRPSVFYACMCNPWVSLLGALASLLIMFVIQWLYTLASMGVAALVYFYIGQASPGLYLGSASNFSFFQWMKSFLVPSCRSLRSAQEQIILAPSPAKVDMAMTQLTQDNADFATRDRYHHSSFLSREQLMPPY", "details": "mice; through the Slc12a8 NMN transporter"}},
  "data": [
    {"smiles": "NC(=O)c1ccc[n+]([C@@H]2O[C@H](COP(=O)([O-])O)[C@@H](O)[C@H]2O)c1", "note": "[NMN, Nicotinamide mononucleotide]", "values": [
      {"measurement": "safety in men", "setting": "[1]", "result": "safe"},
      {"measurement": "time for NMN to enter cells via the small intestines converting to NAD+", "setting": "Slc12a8 NMN transporter", "result": "≤ 10", "unit": "min"}
    ]}
  ]
}
